Measurements taken from patent US12161632B2, “Compositions and methods of treating cardiac fibrosis with ifetroban” (Cumberland Pharmaceuticals Inc., priority 2014, dated 2024).
Entries after “also recorded” stand apart in the source; their conditions may differ.

Key:
[1] = system: pulmonary artery banding (PAB) model of right ventricular pressure overload; assay: PAB model of right ventricular pressure overload: hemodynamics, echocardiography, histology (Example VII); type: in vivo; settings: PAB mice; for RV fibrosis / fibrotic area (Masson's trichrome): ifetroban 25 mg/kg/day in drinking water; for cardiomyocyte diameter / cellular hypertrophy: ifetroban 25 mg/kg/day
Method: (§1) Both male and female age-matched C57Bl/6 or FVB/NJ mice, obtained by in-house breeding, were used for pulmonary artery banding. LysM-GFP mice were obtained by cross-breeding LysM-Cre×mTomato/GFP reporter mice B6.129P2-Lyz2tm1(cre)Ifo/J (a gift from Tim Blackwell)×Gt(ROSA)26Sortm4(ACTB-tdTomato, -EGFP)Luo (JAX stock #007676). The day following surgery, mice were given either 25 mg/kg/day IFETROBAN (Cumberland Pharmaceuticals Inc., Nashville, TN) in drinking water or normal drinking water (vehicle) for 2 weeks or 6 weeks prior to hemodynamic evaluation. Mice were weighed and water was changed once a week.
An RVSP of 30 mmHg was used to define PAH, and only samples from mice at or above this threshold were used for analysis of PAB groups. […] Two weeks after PAB, fibrosis in the RV of untreated mice has increased from <5% to […] (blue stain) in histologic sections of frozen RV stained with Masson's trichrome.
In the previous experiments, there was an increase in RV mass but not yet any change in cardiac output or other functional parameters, apart from E/A wave ratio, following PAB. To determine whether the decrease in fibrosis seen with TP receptor antagonism leads to increased preservation of cardiac function, the period following PAB-induced pressure overload was extended to 6 weeks and dosing with ifetroban was continued to 6 weeks, as well. […] This was associated with a decreased ejection fraction and decreased fractional shortening, signs of cardiac failure. All of these were prevented in PAB mice that received ifetroban, despite similar RVSP. Mice underwent sham surgery or PAB and echocardiography and pressure-loop catheterization performed after 6 weeks. End diastolic and systolic volume of the left ventricle were measured using the average of values calculated using both spherical and cylindrical models. Also obtained from echocardiography were the left ventricular stroke volume and ejection fraction, as well as percent fractional shortening.

[2] = system: α and ß isoforms of the TP receptor; settings: cited from earlier work
[3] = system: RV monocytes / macrophages; assay: Cardiac monocytes: LysM-Cre lineage tracing and flow cytometry of RV (Example VII); type: in vivo, mice
Method: as §1
TP receptors are also expressed on monocytes, and blockade of these receptors may have immune-specific effects. To determine whether the decrease in fibrosis seen with TP receptor inhibition was due to decreased macrophage infiltration or proliferation in the RV, PAB on LysM-Cre mice expressing eGFP under the LysozymeM promoter was performed, where all cells that have ever had monocyte lineage are labeled with GFP, even if they have later differentiated. […] Transgenic LysM-Cre×flox-mTomato-flox eGFP mice were used to label cells of monocyte derivation in the RV. These mice express a fluorescent red, except in cells derived from monocyte lineage (even if they have later differentiated), which express a fluorescent green. […] Flow sorting of whole RV for circulating markers found a non-significant trend towards an increase in PA-banded mice that was blocked by ifetroban.

For CCCCCNC(=O)c1coc([C@H]2[C@@H](Cc3ccccc3CCC(=O)O)[C@@H]3CC[C@H]2O3)n1 [ifetroban, [1S-(1α,2α,3α,4α)]-2-[[3-[4-[(Pentylamino)carbonyl]-2-oxazolyl]-7-oxabicyclo[2.2.1]hept-2-yl]methyl]-benzenepropanoic acid], the “RV mass (ratio of right ventricular weight to left ventricle+septum weight)” value ([1]; 25 mg/kg/day, 2 weeks) was “similarly increased in vehicle- and ifetroban-treated PAB groups; also recorded: not blocked”, the “tricuspid E/A wave ratio (echocardiography)” value ([1]; 25 mg/kg/day, 2 weeks, p<0.05 by ANOVA) was “increased; also recorded: improved” and the “RV mass (ratio of right ventricular weight to left ventricle+septum weight)” value ([1]; 25 mg/kg/day, 2 weeks, listed as Ifetroban) was “allowing increased RV mass”. For the same molecule, the “signs of cardiac failure (left ventricular dilation, increased stroke volume, decreased ejection fraction and fractional shortening)” value ([1]; 25 mg/kg/day, 6 weeks) was “more functional adaptation and decreased indications of cardiac failure; also recorded: prevented”, the “RV fibrosis / fibrotic area (Masson's trichrome)” value (“RV fibrosis / fibrotic area” below) ([1]; 2 weeks) was “almost completely abolished” and the “RV fibrosis / fibrotic area” value ([1]; 2 weeks, listed as Ifetroban) was “near normalization of fibrotic area”. For the same molecule, the “RV fibrosis / fibrotic area” value ([1]; 2 weeks, listed as ifetrobn) was “antifibrotic effect”, the “cardiomyocyte diameter / cellular hypertrophy” value ([1]; 2 weeks) was “blocked” and the “cardiomyocyte diameter / cellular hypertrophy” value ([1]; 2 weeks, listed as Ifetroban) was “prevented cellular hypertrophy”. The “protection against pressure overload” value ([1]; ifetroban, two weeks following PAB) was “protected against pressure overload”, the “blockade of TPα and TPβ receptor isoforms” value [2] was “effectively blocked” and the “PAB-induced increase in green (monocyte lineage) cells in RV” value ([3]; LysM-Cre reporter mice, ifetroban) was “not in ifetroban-treated mice”. The “flow sorting of whole RV for circulating markers: non-significant trend towards an increase in PA-banded mice” value ([3]; wildtype mice, PAB) was “blocked”.
